From ChEMBL document CHEMBL1150297, “Beta-amino acid substitutions and structure-based CoMFA modeling of hepatitis C virus NS3 protease inhibitors” (Bioorg Med Chem, 2008)

assay: Inhibition of HCV NS3 protease by fluorescence plate reader; design: species or system Hepacivirus hominis

SMILES	Ki
COc1ccc2c(O[C@@H]3C[C@@H](C(=O)NC4(C(=O)O)CC4)N(C(=O)C[C@@H](NC(=O)OC(C)(C)C)C(C)C)C3)cc(-c3ccccc3)nc2c1	17 µM
COc1ccc2c(O[C@@H]3C[C@@H](C(=O)NC4(C(=O)C(=O)O)CC4)N(C(=O)[C@@H](NC(=O)OC(C)(C)C)C(C)C)C3)cc(-c3ccccc3)nc2c1	1 µM
COc1ccc2c(O[C@@H]3C[C@@H](CC(=O)NC4(C(=O)O)CC4)N(C(=O)[C@@H](NC(=O)OC(C)(C)C)C(C)C)C3)cc(-c3ccccc3)nc2c1	61 µM
COc1ccc2c(O[C@@H]3C[C@@H](C(=O)NC4(CC(=O)O)CC4)N(C(=O)[C@@H](NC(=O)OC(C)(C)C)C(C)C)C3)cc(-c3ccccc3)nc2c1	18 µM
COc1ccc2c(O[C@@H]3C[C@@H](C(=O)NC4(C(=O)O)CC4)N(C(=O)[C@@H](NC(=O)OC(C)(C)C)C(C)C)C3)cc(-c3ccccc3)nc2c1	0.32 µM

Results, then the molecule that gave them:

Ki	SMILES
1.2 µM	COc1ccc2c(O[C@@H]3C[C@@H](C(=O)NC4(C(=O)NS(=O)(=O)c5ccccc5)CC4)N(C(=O)C[C@@H](NC(=O)OC(C)(C)C)C(C)C)C3)cc(-c3ccccc3)nc2c1
14 µM	COc1ccc2c(O[C@@H]3C[C@@H](C(=O)NC4(CC(=O)NS(=O)(=O)c5ccccc5)CC4)N(C(=O)[C@@H](NC(=O)OC(C)(C)C)C(C)C)C3)cc(-c3ccccc3)nc2c1
0.055 µM	COc1ccc2c(O[C@@H]3C[C@@H](C(=O)NC4(C(=O)NS(=O)(=O)c5ccccc5)CC4)N(C(=O)[C@@H](NC(=O)OC(C)(C)C)C(C)C)C3)cc(-c3ccccc3)nc2c1
1.8 µM	COc1ccc2c(O[C@@H]3C[C@@H](CC(=O)NC4(C(=O)NS(=O)(=O)c5ccccc5)CC4)N(C(=O)[C@@H](NC(=O)OC(C)(C)C)C(C)C)C3)cc(-c3ccccc3)nc2c1
